Experimental data: patent publication US20210353751A1, “COMBINATION THERAPIES FOR TREATMENT OF INFLAMMATORY DISEASES” (The Regents of The University of California, priority 2018, published 2021)
Like-named read-outs stand apart in the source and are kept apart here.

Tests used:
Newly-diabetic NOD mice [1] = test: Anti-CD3 plus GABA in newly-diabetic NOD mice: glycemia and islet staining (insulin/glucagon) after three months; type: in vivo
Procedure: Newly-diabetic NOD mice (blood glucose 220-300 mg/dL on two consecutive days) were treated with anti-CD3 (non-Fc binding anti-CD3ε F(ab′)2 from BioExpress, 40 μg/day intravenously for 5 consecutive days) and immediately began one of the following additional treatments: • (1) control PBS IP; • (2) GABA (dissolved in PBS, 250 μg/kg, IP); • (3) control plain drinking water; or • (4a) drinking water containing 6 mg/ml GABA or (4b) drinking water containing 20 mg/ml GABA. Mice drink approximately 4 ml/day, so Group 4a consumed approximately 24 mg/day of GABA and Group 4b consumed approximately 80 mg/day of GABA.
Three months after beginning treatment, pancreata from the mice were removed and sections (4 μm) were stained with Alexa Fluor 647-anti-glucagon (shown in red in the Figures) and Alexa-488 conjugated with anti-insulin (shown in green in the Figures), followed by staining with 4′,6-diamidino-2-phenylindole (“DAPI”). Images were captured using a fluorescent microscope and at least 30 islets from each group of mice (n=4) were analyzed. Data are representative islet images or expressed as the mean±standard deviation (“SD”) of each group.

Newly-diabetic NOD mice [2] = conditions: oral GABA at 20 mg/ml, monotherapy; cited from earlier work
[3] = after intravenous or intraperitoneal injection; cited from earlier work
[4] = test system: newly severely hyperglycemic NOD mice; test: Combined GABA-R agonist and low-dose anti-CD3 treatment in severely hyperglycemic NOD mice (remission/relapse); type: in vivo; conditions: homotaurine alone 0.25 mg/ml; severe hyperglycemia at entry
Procedure: The inventors hypothesized that combining GABA-Receptor activation with an immunosuppressant may allow effective disease reversal using lower dosages of the immunosuppressant and thereby reduce the possibility of side effects. The inventors chose to test anti-CD3 since it is a prototypic immunosuppressant that is in clinical use. In pilot studies, the inventors developed a low-dose anti-CD3 treatment protocol (35 μg anti-CD3 on three consecutive days), which reversed hyperglycemia in about a third of newly-diabetic NOD mice with severe hyperglycemia at entry into the study (blood glucose >350 mg/dL). The inventors then treated newly severely hyperglycemic NOD mice with low-dose anti-CD3 together with homotaurine (0.25 mg/ml), GABA (6 mg/ml), or plain water.
For these studies, the inventors initiated treatment when the NOD mice had blood glucose levels >350 mg/dL. […] Treated mice with two consecutive blood glucose readings below 250 mg/dL were considered to be in remission after which two consecutive blood glucose readings >250 mg/dL was considered to be disease relapse […]
Treatment was initiated when the NOD mice had blood glucose levels >350 mg/dL. […] Treated mice with two consecutive blood glucose readings below 250 mg/dL were considered to be in remission after which two consecutive blood glucose readings >250 mg/dL was considered to be disease relapse.

GABA-R = conditions: relative to GABA; cited from earlier work
[5] = test system: PLN mononuclear cells of NOD mice; test: Pancreatic lymph node (PLN) mononuclear cell analysis; type: in vivo; conditions: treated at 15-18 weeks in age, studied 3 weeks later; monotherapies relative to control, combination relative to monotherapies
Description: This increase was significant for CD4^+CD25^+Foxp3^+ cells in comparison to homotaurine monotherapy. Thus, combined therapy also elevated the average frequencies of CD4^+ and CD8^+ Tregs within the target tissue/PLN of NOD mice

Newly-diabetic NOD mice [6] = test: Homotaurine monotherapy dose-finding study in newly-diabetic NOD mice; type: in vivo
Procedure: To determine whether homotaurine had therapeutic potential in NOD mice, the inventors performed a dose finding study with homotaurine dissolved in the drinking water at 0, 0.08, 0.25 or 0.75 mg/ml. […] Newly-diabetic NOD mice that were untreated rapidly progressed to severe hyperglycemia within 1 week. […] Thus, oral homotaurine monotherapy at an appropriate dose can quickly correct hyperglycemia and maintain normoglycemia for a short period, but most of the treated mice become hyperglycemic again.
A dose finding study was performed with homotaurine dissolved in the drinking water at 0, 0.08, 0.25 or 0.75 mg/ml to determine the therapeutic potential in NOD mice. […] Newly-diabetic NOD mice that were untreated rapidly progressed to severe hyperglycemia within 1 week. […] Thus, oral homotaurine monotherapy at an appropriate dose can quickly correct hyperglycemia but most of the treated mice become hyperglycemic again within a short period.
NOD mice (Taconic Farms, Germantown) were housed in a specific pathogen-free facility. Only female NOD mice were used.
Blood glucose levels were monitored 2-3 times weekly using a One Touch Ultrasensitive monitor and those with two consecutive daily blood glucose levels between 250-300 mg/dL were entered into the study. The mice were randomly assigned to groups that continually received water containing 0, 0.08, 0.25, or 0.75 mg/ml homotaurine, pH 7.2 through their drinking water. Each mouse consumed on average about 4-5 ml of water per day. Water bottles were changed every five days. Treated mice with two consecutive blood glucose readings below 250 mg/dL were considered to be in remission after which two consecutive blood glucose readings >250 mg/dL was considered disease relapse.

[7] = test system: splenic Tregs of SJL mice; conditions: homotaurine monotherapy, EAE model; cited from earlier work
[8] = homotaurine 0.08 mg/ml in drinking water
[9] = homotaurine 0.25 mg/ml in drinking water

Row | Compound | numbers of bihormonal cells versus groups treated with lower dosages of GABA (Newly-diabetic NOD mice [1]; GABA 20 mg/ml in drinking water with anti-CD3) | frequency of bihormonal glucagon+ insulin+ cells versus control groups (Newly-diabetic NOD mice [1]; all GABA-treated groups (250 μg/kg IP, 6 or 20 mg/ml in water), all with anti-CD3) | increase in the frequency of insulin+ cells per islet relative to control groups who received anti-CD3 alone (Newly-diabetic NOD mice [1]; highest GABA dose (20 mg/ml in drinking water) with anti-CD3) [fold] | restoration of normoglycemia (Newly-diabetic NOD mice [2]) | time at which mice became hyperglycemic again (Newly-diabetic NOD mice [2]) | half-life in plasma [3] [min] | induction of remission [4] | affinity for GABA-R, higher than GABA (GABA-R) [fold] | frequency of CD4+CD25+Foxp3+ cells in the PLN [5] | frequency of CD8+CD122+PD-1+ cells in the PLN [5] | half-life in plasma compared with GABA [3] | water or food consumption or body weights over the course of the study (Newly-diabetic NOD mice [6]; homotaurine 0, 0.08, 0.25 or 0.75 mg/ml in drinking water) | delay of disease progression (mean) (Newly-diabetic NOD mice [6]; [8]) [weeks] | effect on disease progression (Newly-diabetic NOD mice [6]; [8]) | restoration of normoglycemia (Newly-diabetic NOD mice [6]; [9]) | time at which most mice became hyperglycemic again (Newly-diabetic NOD mice [6]; [9]) [weeks] | effect on disease progression (Newly-diabetic NOD mice [6]; homotaurine 0.75 mg/ml in drinking water, on average less effective than 0.25 mg/ml) | mean remission period for all mice (Newly-diabetic NOD mice [6]; homotaurine monotherapy 0.25 mg/ml in drinking water) [weeks] | frequency of splenic CD4+Foxp3+ Tregs [7] | frequency of splenic CD8+CD122+PD-1+ Tregs [7]
1 | NCCCC(=O)O [GABA, γ-aminobutyric acid] | greater numbers of bihormonal cells | significantly increased | 26 | restored normoglycemia in all mice | generally within five weeks | 20 |  |  |  |  |  |  |  |  |  |  |  |  |  | 
2 | NCCCS(=O)(=O)O [homotaurine] |  |  |  |  |  |  | unable to induce remission | > 3 | significantly increased | significantly increased | longer half-life than GABA | None of the mouse groups under study differed | 2.2 | delayed disease progression for a very brief period | restored normoglycemia in all mice | ≤ 6 | some delay in disease progression | 14 | increased the frequency | increased the frequency
